The text below walks through data of patent US8420823B2, “Long-chain fatty acyl elongase inhibitor comprising arylsulfonyl derivative as active ingredient” (MSD K.K., priority 2008, dated 2013).

By IC50 is commonly meant the point on the concentration scale where inhibition reaches its midpoint. Read a high IC50 as a need for much substance.

Counter-ions that a name gives are not always drawn.

The target in this experiment is T1, human LCE (Homo sapiens, UniProt Q9H5J4).
T1 sequence (Q9H5J4 1-265): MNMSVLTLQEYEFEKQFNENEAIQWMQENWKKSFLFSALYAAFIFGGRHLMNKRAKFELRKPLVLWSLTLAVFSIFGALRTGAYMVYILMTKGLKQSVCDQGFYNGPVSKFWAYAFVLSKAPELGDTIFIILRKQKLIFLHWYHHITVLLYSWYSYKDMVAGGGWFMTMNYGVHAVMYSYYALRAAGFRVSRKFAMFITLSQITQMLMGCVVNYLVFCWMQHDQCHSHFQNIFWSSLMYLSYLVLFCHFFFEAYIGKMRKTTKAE
As to the kind of experiment: LCE enzyme activity-inhibitory test. It counts as biochemical. To be noted: [14C]-malonyl CoA / palmitoyl CoA substrate, 37° C., 90 minutes. Here is the method: Pharmacological Test Example 1 (LCE Enzyme Activity-inhibitory Test)
A test compound was dissolved in dimethyl sulfoxide (DMSO to be 10 mM), and then diluted with DMSO to prepare a 1000-fold concentrated solution of the test concentration. An improved Moon et al's method (J. Biol. Chem., Vol. 276, pp. 45358-45366, 2001) was employed for the LCE enzyme activity-inhibitor test. Concretely, the diluted compound was applied to a 96-well assay plate (Corning, 96-well assay block) in an amount of 1.0 μL/well; 50 μL of a phosphate buffer solution (100 mM potassium phosphate buffer, pH 6.5), and 25 μL of a substrate solution (100 mM potassium phosphate buffer (pH 6.5), 4.0 μM rotenone, 80 μM fatty acid-free bovine serum albumin, 160 μM palmitoyl CoA, 80 μM malonyl CoA, 3.5 μM [^14C]-malonyl CoA (1.92 GBq/mmol, by Amersham)) were added to each well; 25 μL of an enzyme solution (100 mM potassium phosphate buffer (pH 6.5), 100 μg/mL human LCE) was added thereto; the top of the plate was airtightly sealed up; and this was incubated with gently shaking and stirring at 37° C. for 90 minutes. Next, 100 μL of 5 M hydrochloric acid was added to each well, and the assay plate was stirred at room temperature for 5 minutes to stop the enzyme reaction with hydrolyzing the acyl CoA. Next, the enzyme reaction solution in each well was adsorbed by each well of a 96-well GF/C filter plate (Perkin Elmer Unifilter 96 GF/C); the individual wells were washed with water to remove the non-adsorbed malonyl CoA; and the GF/C filter plate was dried at 50° C. for 60 minutes. Next, 30 μL of a scintillator (Perkin Elmer Microscinti 0) was added to each well; then the top of the plate was sealed up; and the fixed [^14C] radioactivity was measured with a microplate scintillation counter (Perkin Elmer TopCount) to be the enzyme activity. The human LCE enzyme-inhibitory activity of the test compound was calculated, based on the radioactivity of the DMSO-added well with no test compound therein as a control.
`CC(C)Oc1ccc(NC(=O)c2cccc(S(=O)(=O)N3CCN4CCCCC4C3)c2)cc1` (stereo not shown) [Example 13, N-(4-Isopropoxyphenyl)-3-(octahydro-2H-pyrido[1,2-a]pyrazin-2-ylsulfonyl)benzamide trifluoroacetate]: the half-inhibitory concentration (IC50) came out at 5200 nM. In turn, `CC(C)Oc1cc(NC(=O)c2cccc(S(=O)(=O)c3ccccn3)c2)[nH]n1` [Example 116, N-(3-isopropoxy-1H-pyrazol-5-yl)-3-(pyridin-2-ylsulfonyl)benzamide] displayed a concentration for half-maximal inhibition (IC50) of 12 nM.

In turn, `O=C(NCCc1ccccc1)c1cccc(S(=O)(=O)N2CCCCC2)c1` [Example 78, N-(2-phenylethyl)-3-(piperidin-1-ylsulfonyl)benzamide] yielded a 50% inhibitory concentration (IC50) of 7900 nM. For `CC(C)Oc1ccc(NC(=O)Cc2cccc(S(=O)(=O)N3CCCCC3)c2)cc1` [Example 160, N-(4-isopropoxyphenyl)-2-[3-(piperidin-1-ylsulfonyl)phenyl]acetamide] the value was 130 nM; for `CC(C)c1ccc(NC(=O)c2cccc(S(=O)(=O)N3CCCC3)c2)cc1` [Example 28, N-(4-isopropylphenyl)-3-(pyrrolidin-1-ylsulfonyl)benzamide], 170 nM; for `CC(C)c1ccc(NC(=O)c2cccc(S(=O)(=O)N3[C@H](C)CCC[C@@H]3C)c2)cc1` [Example 31, 3-{[(2R,6S)-2,6-dimethylpiperidin-1-yl]sulfonyl}-N-(4-isopropylphenyl)benzamide], 2800 nM.

`CC(C)Oc1ccc(NC(=O)c2cccc(S(=O)(=O)N3CCC[C@@H](C(N)=O)C3)c2)nc1` [Example 59′, (3R)-1-[(3-{[(5-isopropoxypyridin-2-yl)amino]carbonyl}phenyl)sulfonyl]piperidine-3-carboxamide] gave an IC50 of 3000 nM. Compound `CC(C)Oc1ccc(NC(=O)c2cccc(S(=O)(=O)N3CCC(F)CC3)c2)cc1` [Example 15, 3-[(4-Fluoropiperidin-1-yl)sulfonyl]-N-(4-isopropoxyphenyl)benzamide] returned an IC50 of 120 nM. For `CC(C)Oc1ccc(NC(=O)c2cccc(S(=O)(=O)NC(C3CC3)C3CC3)c2)cc1` [Example 6, 3-{[(dicyclopropylmethyl)amino]sulfonyl}-N-(4-isopropoxyphenyl)benzamide] the value was 1100 nM; for `COCC(C)Oc1ccc(NC(=O)c2cccc(S(=O)(=O)c3ccccn3)c2)c(F)c1` (stereo not shown) [Example 123, N-[2-fluoro-4-(2-methoxy-1-methylethoxy)phenyl]-3-(pyridin-2-ylsulfonyl)benzamide], 2700 nM.

The compound `CC(C)Oc1ccc(NC(=O)c2cccc(S(=O)(=O)N3CCc4o[nH]c(=O)c4C3)c2)cc1` [Example 22, N-(4-isopropoxyphenyl)-3-[(3-oxo-2,3,6,7-tetrahydroisoxazolo[4,5-c]pyridin-5(4H)-yl)sulfonyl]benzamide] displayed an IC50 of 5100 nM. In turn, `CC(C)c1ccc(NC(=O)c2cccc(S(=O)(=O)N3CCC[C@@H](O)C3)c2)cc1` [Example 36, 3-{[(3R)-3-hydroxypiperidin-1-yl]sulfonyl}-N-(4-isopropylphenyl)benzamide] displayed an IC50 of 81 nM.

With `COc1ncccc1NC(=O)c1cccc(S(=O)(=O)N2CCCCC2)c1` [Example 97, N-(2-methoxypyridin-3-yl)-3-(piperidin-1-ylsulfonyl)benzamide], the IC50 was found to be 2500 nM.

`CC(C)c1ccc(NC(=O)c2cccc(S(=O)(=O)N3CCCCC3)c2)cc1` [Example 77, N-(4-isopropylphenyl)-3-(piperidin-1-ylsulfonyl)benzamide] gave an IC50 of 34 nM. In the case of `CC(C)Oc1cc(NC(=O)c2cccc(S(=O)(=O)N3CCCCC3)c2)[nH]n1` [Example 69, 3-Isopropoxy-5-{[3-(piperidin-1-ylsulfonyl)benzoyl}amino]-1H-pyrazole hydrochloride] it was 2.3 nM; in that of `COc1ccccc1NC(=O)c1cccc(S(=O)(=O)N2CCCCC2)c1` [Example 80, N-(2-methoxyphenyl)-3-(piperidin-1-ylsulfonyl)benzamide], 44 nM; in that of `CC(C)Oc1ccc(NC(=O)c2cccc(S(=O)(=O)N3CCCCC3)c2)cc1` [Example 91, N-(4-isopropoxyphenyl)-3-(piperidin-1-ylsulfonyl)benzamide], 31 nM.

The compound `Cc1cccc(S(=O)(=O)c2cccc(C(=O)Nc3ccc(OC(C)C)cc3)c2)n1` [Example 132, N-(4-isopropoxyphenyl)-3-[(6-methylpyridin-2-yl)sulfonyl]benzamide] showed an IC50 of 680 nM. For `CC(C)Oc1ccc(C(=O)NCc2cccc(S(=O)(=O)N3CCCCC3)c2)cc1` [Example 159, 4-Isopropoxy-N-[3-(piperidin-1-ylsulfonyl)benzyl]benzamide] the value was 230 nM. In the case of `COc1cccnc1NC(=O)c1cccc(S(=O)(=O)N2C3CCCC2CC3)c1` [Example 54, 3-(8-Azabicyclo[3.2.1]oct-8-ylsulfonyl)-N-(3-methoxypyridin-2-yl)benzamide] it was 1600 nM; in that of `CC(C)Oc1ccc(NC(=O)c2cccc(S(=O)(=O)N3CCC[C@H](C(N)=O)C3)c2)nc1` [Example 59, (3S)-1-[(3-{[(5-isopropoxypyridin-2-yl)amino]carbonyl}phenyl)sulfonyl]piperidine-3-carboxamide], 110 nM; in that of `Cc1ccnc(S(=O)(=O)c2cccc(C(=O)Nc3ccc(OC(C)C)cc3)c2)c1` [Example 131, N-(4-isopropoxyphenyl)-3-[(4-methylpyridin-2-yl)sulfonyl]benzamide], 1600 nM. In the case of `O=C(NCCCc1ccccc1)c1cccc(S(=O)(=O)N2CCCCC2)c1` [Example 86, N-(3-phenylpropyl)-3-(piperidin-1-ylsulfonyl)benzamide] it was 3000 nM; in that of `CC(C)c1ccc(NC(=O)c2cccc(S(=O)(=O)N3[C@H](C)CC[C@H]3C)c2)cc1` [Example 26, 3-{[(2R,5R)-2,5-dimethylpyrrolidin-1-yl]sulfonyl}-N-(4-isopropylphenyl)benzamide], 3500 nM; in that of `CC(C)Oc1ccc(NC(=O)c2cccc(S(=O)(=O)c3ccccn3)c2)nc1` [Example 122, N-(5-isopropoxypyridin-2-yl)-3-(pyridin-2-ylsulfonyl)benzamide], 260 nM. Compound `COc1cc(-c2ccccc2)cnc1NC(=O)c1cccc(S(=O)(=O)N2CCCC2)c1` [Example 109, N-(3-methoxy-5-phenylpyridin-2-yl)-3-(pyrrolidin-1-ylsulfonyl)benzamide] showed an IC50 of 3200 nM. For `CC(C)Oc1ccc(NC(=O)c2cccc(S(=O)(=O)N3CCC[C@H]3C)c2)cc1` [Example 24, N-(4-isopropoxyphenyl)-3-{[(2R)-2-methylpyrrolidin-1-yl]sulfonyl}benzamide] the value was 670 nM. In the case of `CC(C)Oc1ccc(NC(=O)c2cccc(S(=O)(=O)N3CCC[C@@H]3C)c2)cc1` [Example 23, N-(4-isopropoxyphenyl)-3-{[(2S)-2-methylpyrrolidin-1-yl]sulfonyl}benzamide] it was 130 nM; in that of `COc1cc(S(=O)(=O)c2ccccc2)cnc1NC(=O)c1cccc(S(=O)(=O)N2CCCC2)c1` [Example 112, N-[3-methoxy-5-(phenylsulfonyl)pyridin-2-yl]-3-(pyrrolidin-1-ylsulfonyl)benzamide], 9500 nM; in that of `CC(C)Oc1ccc(C(=O)NCCc2cccc(S(=O)(=O)N3CCCCC3)c2)cc1` [Example 161, 4-Isopropoxy-N-{2-[3-(piperidin-1-ylsulfonyl)phenyl]ethyl}benzamide], 4800 nM. For `COc1ccc(NC(=O)c2cccc(S(=O)(=O)NCCCCC(=O)O)c2)cc1` [Example 44, 5-{[(3-{[(4-methoxyphenyl)amino]carbonyl}phenyl)sulfonyl]amino}pentanoic acid] the value was 15000 nM; for `CCc1cnc(NC(=O)c2cccc(S(=O)(=O)N3CCCCC3)c2)c(OC)c1` [Example 108, N-(5-ethyl-3-methoxypyridin-2-yl)-3-(piperidin-1-ylsulfonyl)benzamide], 100 nM; for `COc1ccc(NC(=O)c2cc(S(=O)(=O)N3CCCCC3)ccc2OC)cc1` [Example 149, 2-Methoxy-N-(4-methoxyphenyl)-5-(piperidin-1-ylsulfonyl)benzamide], 1000 nM. In turn, `COC1CCCN(S(=O)(=O)c2cccc(C(=O)Nc3ccc(OC(C)C)cc3)c2)C1` (stereo not shown) [Example 18, N-(4-isopropoxyphenyl)-3-[(3-methoxypiperidin-1-yl)sulfonyl]benzamide] had an IC50 of 510 nM.
